Reference: ChEMBL document CHEMBL4765228, “Indole-like Trk receptor antagonists” (Eur J Med Chem, 2016)

Assays:
[1] = biological target: Homeodomain-interacting protein kinase 2 (Homo sapiens) (UniProt Q9H2X6); experiment: Inhibition of human HIPK2 assessed as residual activity at 0.1 uM relative to control
[2] = biological target: Serine/threonine-protein kinase N2 (Homo sapiens) (UniProt Q16513); experiment: Inhibition of human PRK2 assessed as residual activity at 0.1 uM relative to control
[3] = biological target: Serine/threonine-protein kinase PLK1 (Homo sapiens) (UniProt P53350); experiment: Inhibition of human PLK1 assessed as residual activity at 1 uM relative to control
[4] = biological target: Ribosomal protein S6 kinase alpha-5 (Homo sapiens) (UniProt O75582); experiment: Inhibition of human RPS6KA5 assessed as residual activity at 0.1 uM relative to control
[5] = biological target: Mitogen-activated protein kinase 8 (Homo sapiens) (UniProt P45983); experiment: Inhibition of human JNK1 assessed as residual activity at 1 uM relative to control
[6] = biological target: Glycogen synthase kinase-3 beta (Homo sapiens) (UniProt P49841); experiment: Inhibition of human GSK3-beta assessed as residual activity at 1 uM relative to control
[7] = biological target: 5'-AMP-activated protein kinase catalytic subunit alpha-1 (Homo sapiens) (UniProt Q13131); experiment: Inhibition of human AMPKalpha1 (1 to 550 residues assessed as residual activity at 1 uM relative to control
[8] = biological target: T1, Serine/threonine-protein kinase D1 (Homo sapiens) (UniProt Q15139); experiment: Inhibition of human PKCmu assessed as residual activity at 0.1 uM relative to control
T1 sequence (whole entry): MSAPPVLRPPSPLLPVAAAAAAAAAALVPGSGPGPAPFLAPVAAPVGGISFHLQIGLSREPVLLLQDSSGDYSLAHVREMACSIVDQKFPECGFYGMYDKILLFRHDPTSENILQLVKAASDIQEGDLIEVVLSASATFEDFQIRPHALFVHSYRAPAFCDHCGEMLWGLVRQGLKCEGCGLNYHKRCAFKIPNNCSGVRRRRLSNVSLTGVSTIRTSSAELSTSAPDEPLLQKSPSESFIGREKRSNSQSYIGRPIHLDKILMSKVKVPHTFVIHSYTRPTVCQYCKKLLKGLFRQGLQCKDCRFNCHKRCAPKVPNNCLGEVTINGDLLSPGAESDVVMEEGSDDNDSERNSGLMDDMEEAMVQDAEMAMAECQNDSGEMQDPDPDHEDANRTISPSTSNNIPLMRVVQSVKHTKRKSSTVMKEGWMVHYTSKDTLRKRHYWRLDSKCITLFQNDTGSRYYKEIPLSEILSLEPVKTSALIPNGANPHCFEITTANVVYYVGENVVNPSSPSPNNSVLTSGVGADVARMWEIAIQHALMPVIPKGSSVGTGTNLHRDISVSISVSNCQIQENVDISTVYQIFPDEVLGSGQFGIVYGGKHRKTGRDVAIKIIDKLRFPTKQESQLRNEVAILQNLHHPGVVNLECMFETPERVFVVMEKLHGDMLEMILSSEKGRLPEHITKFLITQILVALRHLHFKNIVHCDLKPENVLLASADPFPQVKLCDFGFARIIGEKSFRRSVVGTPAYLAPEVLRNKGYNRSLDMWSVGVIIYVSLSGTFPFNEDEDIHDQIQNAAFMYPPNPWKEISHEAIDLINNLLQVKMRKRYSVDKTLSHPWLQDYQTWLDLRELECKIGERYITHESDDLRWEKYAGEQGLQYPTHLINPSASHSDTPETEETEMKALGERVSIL

[9] = biological target: MAP/microtubule affinity-regulating kinase 3 (Homo sapiens) (UniProt P27448); experiment: Inhibition of human MARK3 assessed as residual activity at 0.1 uM relative to control
[10] = biological target: 3-phosphoinositide-dependent protein kinase 1 (Homo sapiens) (UniProt O15530); experiment: Inhibition of human PDK1 assessed as residual activity at 0.1 uM relative to control
Homo sapiens = species on record: Homo sapiens; experiment: Inhibition of human PKA assessed as residual activity at 0.1 uM relative to control
[11] = biological target: T2, Serine/threonine-protein kinase Sgk1 (Homo sapiens) (UniProt O00141); experiment: Inhibition of human SGK1 assessed as residual activity at 1 uM relative to control
T2 sequence (whole entry): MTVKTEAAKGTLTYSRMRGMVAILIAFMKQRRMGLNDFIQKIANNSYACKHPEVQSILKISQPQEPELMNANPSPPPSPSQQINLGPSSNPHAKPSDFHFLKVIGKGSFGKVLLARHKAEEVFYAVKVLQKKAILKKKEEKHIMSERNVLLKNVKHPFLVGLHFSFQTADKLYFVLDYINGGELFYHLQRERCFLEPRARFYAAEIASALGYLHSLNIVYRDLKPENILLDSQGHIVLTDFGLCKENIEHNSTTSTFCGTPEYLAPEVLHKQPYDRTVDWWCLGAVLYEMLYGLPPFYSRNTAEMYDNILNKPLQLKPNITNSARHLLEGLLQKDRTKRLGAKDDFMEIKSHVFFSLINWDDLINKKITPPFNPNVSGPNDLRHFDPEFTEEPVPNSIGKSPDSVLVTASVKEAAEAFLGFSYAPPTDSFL

[12] = biological target: 5'-AMP-activated protein kinase catalytic subunit alpha-1 (Homo sapiens) (UniProt Q13131); experiment: Inhibition of human AMPKalpha1 (1 to 550 residues assessed as residual activity at 0.1 uM relative to control
[13] = biological target: T3, Serine/threonine-protein kinase 3 (Homo sapiens) (UniProt Q13188); experiment: Inhibition of human MST2 assessed as residual activity at 0.1 uM relative to control
T3 sequence (whole entry): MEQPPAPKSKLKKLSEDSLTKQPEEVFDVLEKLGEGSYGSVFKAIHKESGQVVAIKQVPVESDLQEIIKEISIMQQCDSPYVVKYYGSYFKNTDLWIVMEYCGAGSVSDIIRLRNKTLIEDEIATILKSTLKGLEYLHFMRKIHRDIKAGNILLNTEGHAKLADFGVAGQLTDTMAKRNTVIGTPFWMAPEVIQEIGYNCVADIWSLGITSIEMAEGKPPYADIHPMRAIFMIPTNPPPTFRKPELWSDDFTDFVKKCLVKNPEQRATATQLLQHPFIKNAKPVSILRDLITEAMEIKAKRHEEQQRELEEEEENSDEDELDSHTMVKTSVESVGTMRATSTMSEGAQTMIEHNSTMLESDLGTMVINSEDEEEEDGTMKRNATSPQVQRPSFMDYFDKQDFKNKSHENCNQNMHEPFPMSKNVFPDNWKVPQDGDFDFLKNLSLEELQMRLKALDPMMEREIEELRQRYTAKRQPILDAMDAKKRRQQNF

[14] = biological target: Vascular endothelial growth factor receptor 1 (Homo sapiens) (UniProt P17948); experiment: Inhibition of human VEGFR1 assessed as residual activity at 0.1 uM relative to control
[15] = biological target: Calcium/calmodulin-dependent protein kinase type 1D (Homo sapiens) (UniProt Q8IU85); experiment: Inhibition of human CAMK1D assessed as residual activity at 0.1 uM relative to control
[16] = biological target: Casein kinase I isoform delta (Homo sapiens) (UniProt P48730); experiment: Inhibition of human CK1-delta assessed as residual activity at 0.1 uM relative to control
Sequence of Casein kinase I isoform delta (Homo sapiens) (P48730 whole entry, looked up, canonical isoform): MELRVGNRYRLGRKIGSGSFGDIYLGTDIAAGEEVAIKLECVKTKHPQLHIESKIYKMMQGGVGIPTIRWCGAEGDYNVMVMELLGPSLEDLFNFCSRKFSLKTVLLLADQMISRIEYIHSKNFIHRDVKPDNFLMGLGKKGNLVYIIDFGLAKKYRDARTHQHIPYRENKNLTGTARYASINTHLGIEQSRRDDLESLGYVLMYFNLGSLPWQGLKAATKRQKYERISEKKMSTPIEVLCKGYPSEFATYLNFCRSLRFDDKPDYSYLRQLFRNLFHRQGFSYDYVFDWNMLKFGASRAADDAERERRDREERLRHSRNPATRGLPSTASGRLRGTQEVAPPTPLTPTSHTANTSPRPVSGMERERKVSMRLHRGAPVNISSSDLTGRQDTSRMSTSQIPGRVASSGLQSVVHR

Sequence of Serine/threonine-protein kinase PLK1 (Homo sapiens) (P53350 whole entry): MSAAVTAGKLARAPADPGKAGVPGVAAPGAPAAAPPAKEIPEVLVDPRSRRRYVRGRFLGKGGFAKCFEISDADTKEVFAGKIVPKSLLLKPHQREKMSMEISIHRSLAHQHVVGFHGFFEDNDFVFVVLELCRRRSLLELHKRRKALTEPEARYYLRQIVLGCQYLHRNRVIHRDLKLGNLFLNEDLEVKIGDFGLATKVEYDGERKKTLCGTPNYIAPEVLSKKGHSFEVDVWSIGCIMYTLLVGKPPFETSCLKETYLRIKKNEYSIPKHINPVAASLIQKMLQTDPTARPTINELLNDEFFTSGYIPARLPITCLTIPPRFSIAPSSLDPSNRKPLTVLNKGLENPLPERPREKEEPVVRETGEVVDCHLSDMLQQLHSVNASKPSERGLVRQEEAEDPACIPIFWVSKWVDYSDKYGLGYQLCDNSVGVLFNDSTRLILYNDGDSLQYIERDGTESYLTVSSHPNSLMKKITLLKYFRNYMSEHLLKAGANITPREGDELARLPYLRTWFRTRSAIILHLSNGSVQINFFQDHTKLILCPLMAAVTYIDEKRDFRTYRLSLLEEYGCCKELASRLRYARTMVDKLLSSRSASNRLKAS
Sequence of 5'-AMP-activated protein kinase catalytic subunit alpha-1 (Homo sapiens) (Q13131 whole entry, looked up, the tested form may be a part): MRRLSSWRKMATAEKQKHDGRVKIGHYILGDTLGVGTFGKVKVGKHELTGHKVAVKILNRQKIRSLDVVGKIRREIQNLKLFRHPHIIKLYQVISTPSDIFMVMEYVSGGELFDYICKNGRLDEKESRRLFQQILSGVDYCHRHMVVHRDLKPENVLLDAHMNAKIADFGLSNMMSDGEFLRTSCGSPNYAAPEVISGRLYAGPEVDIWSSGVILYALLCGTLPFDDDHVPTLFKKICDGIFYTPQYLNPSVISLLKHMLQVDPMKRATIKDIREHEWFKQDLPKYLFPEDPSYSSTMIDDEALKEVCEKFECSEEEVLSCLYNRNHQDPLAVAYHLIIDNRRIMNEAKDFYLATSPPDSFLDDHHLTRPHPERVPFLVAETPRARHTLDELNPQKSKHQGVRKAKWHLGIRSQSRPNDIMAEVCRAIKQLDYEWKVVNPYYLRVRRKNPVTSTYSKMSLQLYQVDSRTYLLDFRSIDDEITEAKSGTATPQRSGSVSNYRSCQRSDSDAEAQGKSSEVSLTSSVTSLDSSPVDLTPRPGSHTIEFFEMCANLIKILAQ
Sequence of Glycogen synthase kinase-3 beta (Homo sapiens) (P49841 whole entry, looked up, the tested form may be a part): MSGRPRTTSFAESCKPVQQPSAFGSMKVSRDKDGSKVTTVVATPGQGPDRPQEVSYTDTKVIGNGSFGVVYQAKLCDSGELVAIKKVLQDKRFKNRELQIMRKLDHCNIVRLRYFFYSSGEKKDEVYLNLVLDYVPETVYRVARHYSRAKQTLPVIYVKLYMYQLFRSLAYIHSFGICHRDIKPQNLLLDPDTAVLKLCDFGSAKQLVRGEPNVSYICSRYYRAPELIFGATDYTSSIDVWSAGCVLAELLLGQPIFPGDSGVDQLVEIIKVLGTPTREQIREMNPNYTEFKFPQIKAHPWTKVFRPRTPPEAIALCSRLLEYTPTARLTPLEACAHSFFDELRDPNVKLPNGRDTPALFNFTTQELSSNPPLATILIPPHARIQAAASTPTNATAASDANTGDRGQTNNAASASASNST
Sequence of Vascular endothelial growth factor receptor 1 (Homo sapiens) (P17948 whole entry): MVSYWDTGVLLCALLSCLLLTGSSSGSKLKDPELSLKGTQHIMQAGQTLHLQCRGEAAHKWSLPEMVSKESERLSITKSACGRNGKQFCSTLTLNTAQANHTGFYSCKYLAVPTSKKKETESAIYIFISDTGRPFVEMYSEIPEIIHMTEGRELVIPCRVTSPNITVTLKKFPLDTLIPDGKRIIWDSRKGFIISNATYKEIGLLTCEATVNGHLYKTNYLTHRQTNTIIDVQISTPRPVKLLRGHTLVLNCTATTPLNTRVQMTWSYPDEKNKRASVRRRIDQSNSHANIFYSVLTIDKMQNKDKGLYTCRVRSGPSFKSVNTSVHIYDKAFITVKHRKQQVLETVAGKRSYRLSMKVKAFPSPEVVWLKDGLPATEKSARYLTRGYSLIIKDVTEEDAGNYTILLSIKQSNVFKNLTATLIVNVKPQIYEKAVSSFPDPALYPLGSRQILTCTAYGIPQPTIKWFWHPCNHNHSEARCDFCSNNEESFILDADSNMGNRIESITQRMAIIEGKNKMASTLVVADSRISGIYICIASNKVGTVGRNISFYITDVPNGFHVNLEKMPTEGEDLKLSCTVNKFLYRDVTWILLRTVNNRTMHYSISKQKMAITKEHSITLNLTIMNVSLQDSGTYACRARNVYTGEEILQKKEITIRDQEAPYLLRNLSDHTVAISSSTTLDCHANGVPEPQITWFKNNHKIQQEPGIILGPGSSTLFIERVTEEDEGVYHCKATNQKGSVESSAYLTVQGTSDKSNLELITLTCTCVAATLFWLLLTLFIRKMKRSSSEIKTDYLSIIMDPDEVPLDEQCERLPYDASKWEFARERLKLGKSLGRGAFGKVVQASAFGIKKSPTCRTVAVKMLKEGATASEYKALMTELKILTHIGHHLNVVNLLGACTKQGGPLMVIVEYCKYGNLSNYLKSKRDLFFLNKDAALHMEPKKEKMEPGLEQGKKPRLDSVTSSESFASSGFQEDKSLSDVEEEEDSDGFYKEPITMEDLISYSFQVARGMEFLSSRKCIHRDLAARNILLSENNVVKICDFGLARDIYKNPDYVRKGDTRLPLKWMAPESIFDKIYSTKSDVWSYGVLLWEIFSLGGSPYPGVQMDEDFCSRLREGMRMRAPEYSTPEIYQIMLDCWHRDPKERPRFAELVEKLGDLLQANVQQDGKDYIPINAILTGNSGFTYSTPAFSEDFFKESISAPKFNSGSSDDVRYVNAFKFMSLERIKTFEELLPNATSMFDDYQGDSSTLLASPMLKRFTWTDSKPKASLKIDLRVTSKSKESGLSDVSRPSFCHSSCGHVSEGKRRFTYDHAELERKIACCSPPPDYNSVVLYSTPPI
Sequence of 3-phosphoinositide-dependent protein kinase 1 (Homo sapiens) (O15530 whole entry, looked up): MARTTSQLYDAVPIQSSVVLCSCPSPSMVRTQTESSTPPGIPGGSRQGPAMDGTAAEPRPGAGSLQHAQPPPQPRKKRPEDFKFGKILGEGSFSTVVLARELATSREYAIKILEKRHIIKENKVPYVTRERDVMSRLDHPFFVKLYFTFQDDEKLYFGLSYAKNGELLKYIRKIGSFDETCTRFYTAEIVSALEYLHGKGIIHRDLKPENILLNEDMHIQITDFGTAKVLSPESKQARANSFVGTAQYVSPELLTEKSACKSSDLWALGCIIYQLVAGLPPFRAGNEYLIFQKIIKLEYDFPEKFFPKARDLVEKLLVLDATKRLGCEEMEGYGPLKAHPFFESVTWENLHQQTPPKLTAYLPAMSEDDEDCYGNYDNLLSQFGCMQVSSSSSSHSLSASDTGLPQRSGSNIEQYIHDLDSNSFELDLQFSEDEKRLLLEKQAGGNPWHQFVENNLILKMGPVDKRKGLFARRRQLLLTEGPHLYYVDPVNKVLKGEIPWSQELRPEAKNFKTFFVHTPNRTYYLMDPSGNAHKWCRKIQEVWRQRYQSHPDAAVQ
Sequence of Mitogen-activated protein kinase 8 (Homo sapiens) (P45983 whole entry): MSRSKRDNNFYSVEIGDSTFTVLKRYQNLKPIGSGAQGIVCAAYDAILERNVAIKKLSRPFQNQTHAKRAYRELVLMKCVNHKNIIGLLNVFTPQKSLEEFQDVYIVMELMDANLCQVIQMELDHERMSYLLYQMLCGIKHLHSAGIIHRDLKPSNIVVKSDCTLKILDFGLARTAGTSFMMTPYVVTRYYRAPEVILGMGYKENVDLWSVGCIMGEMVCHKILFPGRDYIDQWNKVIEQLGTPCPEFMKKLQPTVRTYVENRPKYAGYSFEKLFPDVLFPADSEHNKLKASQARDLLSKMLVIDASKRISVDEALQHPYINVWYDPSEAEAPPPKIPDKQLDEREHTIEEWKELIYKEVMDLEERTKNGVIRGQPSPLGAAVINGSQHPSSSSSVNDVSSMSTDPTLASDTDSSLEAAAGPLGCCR
Sequence of Calcium/calmodulin-dependent protein kinase type 1D (Homo sapiens) (Q8IU85 whole entry, looked up, canonical isoform): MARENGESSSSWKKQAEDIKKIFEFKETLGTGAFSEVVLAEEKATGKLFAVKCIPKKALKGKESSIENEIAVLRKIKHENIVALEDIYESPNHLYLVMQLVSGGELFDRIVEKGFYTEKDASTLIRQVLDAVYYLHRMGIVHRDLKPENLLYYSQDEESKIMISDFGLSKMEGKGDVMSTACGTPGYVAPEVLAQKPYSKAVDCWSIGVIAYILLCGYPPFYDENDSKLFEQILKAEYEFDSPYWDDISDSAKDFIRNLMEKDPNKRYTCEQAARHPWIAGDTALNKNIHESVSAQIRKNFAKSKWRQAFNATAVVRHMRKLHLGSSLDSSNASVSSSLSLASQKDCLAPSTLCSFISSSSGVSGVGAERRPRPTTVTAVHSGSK

SMILES	Activity [1]	Activity [2]	Activity [3]	Activity [4]	Activity [5]	Activity [6]	Activity [7]	Activity [8]	Activity [9]	Activity [10]	Activity (Homo sapiens)	Activity [11]	Activity [12]	Activity [13]	Activity [14]	Activity [15]	Activity [16]
COc1ccc2c(c1)c(/C=C1\C(=O)Nc3ccc(S(=O)(=O)N(C)C)cc31)cn2C	109%	108%	93%	105%	100%	97%	91%	89%	93%	99%	91%	80%	98%	101%	96%	99%	89%
CN(C)S(=O)(=O)c1ccc2c(c1)/C(=C/c1cn(C)c3ccc(O)cc13)C(=O)N2	120%	91%	91%	106%	97%	92%	87%	99%	103%	94%	94%	81%	103%	98%	100%	100%	88%
COc1ccc2c(c1)c(/C=C1\C(=O)Nc3ccc(S(N)(=O)=O)cc31)cn2C	108%	98%	93%	103%	95%	83%	89%	90%	96%	93%	91%	75%	94%	86%	94%	84%	87%

Further lines, results first:

Activity [1]	Activity [2]	Activity [3]	Activity [4]	Activity [5]	Activity [6]	Activity [7]	Activity [8]	Activity [9]	Activity [10]	Activity (Homo sapiens)	Activity [11]	Activity [12]	Activity [13]	Activity [14]	Activity [15]	Activity [16]	SMILES
106%	90%	87%	96%	112%	90%	88%	92%	100%	92%	91%	81%	104%	95%	91%	90%	89%	CNS(=O)(=O)c1ccc2c(c1)/C(=C/c1cn(C)c3ccc(OC)cc13)C(=O)N2
124%	96%	95%	93%	87%	79%	72%	95%	101%	98%	88%	49%	101%	101%	96%	97%	92%	COc1ccc2[nH]cc(/C=C3\C(=O)Nc4ccc(S(N)(=O)=O)cc43)c2c1
112%	94%	91%	99%	94%	92%	56%	95%	93%	90%	94%	55%	83%	91%	82%	106%	88%	Cn1cc(/C=C2\C(=O)Nc3ccc(S(N)(=O)=O)cc32)c2ccccc21
